Data: publication PMC12040169 (PLOS Biology, 2025)

assay: in vitro; details: human, hela cells, % viability

| Structure (SMILES) | viability at 28.5 h, 10 µM |
| --- | --- |
| C[C@H]1[C@@H]2[C@@H](O)C([C@H](C)C(=O)N3CCCCC3)CC[C@@]2(C)CC[C@@H]1NC(=O)c1cnccn1 (stereo partly shown) [CBK289448] | 111% |
| CC(C)NC(=O)[C@@H](C)C1CC[C@@]2(C)CC[C@H](NC(=O)c3ccncc3)[C@@H](C)[C@@H]2[C@H]1O (stereo partly shown) [CBK289449] | 89.1% |
| C[C@H]1[C@@H]2[C@H]3OC(=O)[C@@H](C)[C@@H]3CC[C@@]2(C)CC[C@@H]1NC(=O)c1ccccn1 [CBK289452] | 107% |
| C[C@H]1[C@@H]2[C@@H](O)C([C@H](C)C(=O)NC3CC3)CC[C@@]2(C)CC[C@@H]1NC(=O)c1cncnc1 (stereo partly shown) [CBK289453] | 91.5% |
| CC(C)NC(=O)[C@@H](C)C1CC[C@@]2(C)CC[C@H](NC(=O)c3cncnc3)[C@@H](C)[C@@H]2[C@H]1O (stereo partly shown) [CBK289454] | 103% |
| CCNC(=O)N[C@H]1CC[C@]2(C)CCC([C@H](C)C(=O)N3CCCC3)[C@H](O)[C@H]2[C@@H]1C (stereo partly shown) [CBK289456] | 116% |
| Cc1noc(C)c1C(=O)N[C@H]1CO[C@H]2[C@@H]1OC[C@H]2OCc1ccccc1 [CBK289458] | 96.7% |
| COc1ccc(C(=O)N[C@H]2CO[C@H]3[C@@H]2OC[C@H]3OC(=O)Nc2ccccc2)cc1 [CBK289463] | 103% |
| O=C(Nc1ccccc1)O[C@@H]1CO[C@H]2[C@@H]1OC[C@@H]2NC(=O)C1CC1 [CBK289464] | 88% |
| O=C(Nc1cccc2ccccc12)O[C@@H]1CO[C@H]2[C@@H]1OC[C@@H]2NC(=O)c1cccs1 [CBK289468] | 103% |
| CC(=O)N[C@H]1CO[C@H]2[C@@H]1OC[C@H]2OC(=O)Nc1ccc(Oc2ccccc2)cc1 [CBK289470] | 113% |
| CC(C)c1ccc(NC(=O)O[C@@H]2CO[C@H]3[C@@H]2OC[C@@H]3NC(=O)C2CC2)cc1 [CBK289471] | 99% |
| CCNC(=O)O[C@@H]1CO[C@H]2[C@@H]1OC[C@@H]2NC(=O)c1ccc(C)cc1 [CBK289472] | 106% |
| O=C(Nc1cccc(C(F)(F)F)c1)N[C@H]1CO[C@H]2[C@@H]1OC[C@H]2O [CBK289476] | 102% |
| Cc1ccc(S(=O)(=O)N[C@H]2CO[C@H]3[C@@H]2OC[C@H]3O)cc1 [CBK289477] | 98.4% |
| O=S(=O)(N[C@H]1CO[C@H]2[C@@H]1OC[C@H]2O)c1ccc(Cl)cc1 [CBK289478] | 87.7% |
| CC(C)c1ccc(NC(=O)O[C@@H]2CO[C@H]3[C@@H]2OC[C@@H]3NC(=O)c2cncnc2)cc1 [CBK289480] | 105% |
| CN(C)c1ccc(-c2nnnn2[C@H]2CO[C@H]3[C@@H]2OC[C@H]3O)cc1 [CBK289481] | 76.7% |
| O=C(N[C@H]1CO[C@H]2[C@@H]1OC[C@@H]2n1nnnc1-c1ccccc1)c1ccccc1 [CBK289482] | 120% |
| CC(=O)N[C@H]1CO[C@H]2[C@@H]1OC[C@@H]2n1nnnc1-c1ccccc1 [CBK289483] | 87.1% |
| CCNC(=O)N[C@H]1CO[C@H]2[C@@H]1OC[C@@H]2n1nnnc1Oc1ccccc1 [CBK289484] | 102% |
| CC(=O)N[C@H]1CO[C@H]2[C@@H]1OC[C@@H]2n1nnnc1Oc1ccc(-n2ccnc2)cc1 [CBK289487] | 104% |
| COCc1cn([C@H]2CO[C@H]3[C@@H]2OC[C@H]3OC(=O)Nc2ccc(C)cc2)nn1 [CBK289489] | 90.6% |
| COC(=O)c1cn([C@H]2CO[C@H]3[C@@H]2OC[C@H]3OC(=O)Nc2ccccc2)nn1 [CBK289492] | 91.4% |

| Structure (SMILES) | viability at 28.5 h, 10 µM |
| --- | --- |
| COCc1cn([C@H]2CO[C@H]3[C@@H]2OC[C@@H]3NC(=O)Nc2ccc(OC)cc2)nn1 [CBK289495] | 107% |
| COC(=O)c1cn([C@H]2CO[C@H]3[C@@H]2OC[C@@H]3NC(=O)C2CC2)nn1 [CBK289497] | 86% |
| COC(=O)c1cn([C@H]2CO[C@H]3[C@@H]2OC[C@@H]3NS(=O)(=O)Cc2ccccc2)nn1 [CBK289498] | 86.9% |
| COC(=O)c1cn([C@H]2CO[C@H]3[C@@H]2OC[C@@H]3NC(=O)Nc2ccc(OC)cc2)nn1 [CBK289500] | 94.2% |
| O=C(N[C@H]1CO[C@H]2[C@@H]1OC[C@@H]2n1cc(-c2ccccc2)nn1)N1CCOCC1 [CBK289503] | 87.7% |
| O=C(NC1CCCCC1)N[C@H]1CO[C@H]2[C@@H]1OC[C@@H]2n1cc(-c2ccccc2)nn1 [CBK289505] | 84.6% |
| COc1ccc(NC(=O)N[C@H]2CO[C@H]3[C@@H]2OC[C@@H]3n2cc(-c3ccccc3)nn2)cc1 [CBK289506] | 106% |
| O=C(N[C@H]1CO[C@H]2[C@@H]1OC[C@@H]2n1cc(-c2ccccn2)nn1)c1ccc(C(F)(F)F)cc1 [CBK289507] | 89.7% |
| O=C(N[C@H]1CO[C@H]2[C@@H]1OC[C@@H]2n1cc(CC2CCCCC2)nn1)C1CC1 [CBK289509] | 92.2% |
| COc1cccc(-c2nnnn2[C@H]2CO[C@H]3[C@@H]2OC[C@@H]3NC(=O)c2ccc(C)cc2)c1 [CBK289512] | 94.1% |
| O=C(N[C@H]1CO[C@H]2[C@@H]1OC[C@@H]2Nc1nccc(-c2cccs2)n1)c1ccccc1 [CBK289516] | 84.5% |
| O=C(N[C@H]1CO[C@H]2[C@@H]1OC[C@@H]2Nc1nccc(-c2cccs2)n1)C1CC1 [CBK289517] | 95% |
| O=C(N[C@H]1CO[C@H]2[C@@H]1OC[C@@H]2Nc1nccc(-c2cccs2)n1)c1cccs1 [CBK289518] | 106% |
| CC(C)(C)c1ccnc(N[C@H]2CO[C@H]3[C@@H]2OC[C@@H]3NC(=O)c2cccs2)n1 [CBK289520] | 94.8% |
| CC(C)(C)c1ccnc(N[C@H]2CO[C@H]3[C@@H]2OC[C@@H]3NS(=O)(=O)Cc2ccccc2)n1 [CBK289521] | 91.4% |
| CC(C)(C)c1ccnc(N[C@H]2CO[C@H]3[C@@H]2OC[C@@H]3NC(=O)NCc2ccccc2)n1 [CBK289522] | 87.3% |
| CS(=O)(=O)N[C@H]1CO[C@H]2[C@@H]1OC[C@@H]2Nc1nccc(-c2ccco2)n1 [CBK289525] | 96.4% |
| COc1ccc(-c2ccnc(N[C@H]3CO[C@H]4[C@@H]3OC[C@@H]4NC(=O)c3ccccc3)n2)cc1 [CBK289526] | 83.5% |
| COc1ccc(-c2ccnc(N[C@H]3CO[C@H]4[C@@H]3OC[C@@H]4NC(=O)C3CCCCC3)n2)cc1 [CBK289527] | 88.9% |
| CO[C@@H]1CO[C@H]2[C@@H]1OC[C@@H]2Nc1nccc(-c2cccc(C#N)c2)n1 [CBK289532] | 79.8% |
| CC(=O)N[C@H]1CO[C@H]2[C@@H]1OC[C@@H]2Nc1nccc(-c2cccc(F)c2)n1 [CBK289534] | 99.3% |
| O=C(N[C@H]1CO[C@H]2[C@@H]1OC[C@@H]2Nc1nccc(-c2cccc(F)c2)n1)C1CC1 [CBK289535] | 99.2% |
| CCNC(=O)N[C@H]1CO[C@H]2[C@@H]1OC[C@@H]2Nc1nccc(-c2cccc(F)c2)n1 [CBK289536] | 91.1% |
| O=C(N[C@H]1CCN2C(=O)[C@H]3CCCN3C(=O)[C@@H]2C1)c1cccs1 [CBK289538] | 106% |

| Structure (SMILES) | viability at 28.5 h, 10 µM |
| --- | --- |
| CC(C)NC(=O)N[C@H]1CCN2C(=O)N(c3cccc4nsnc34)C(=O)[C@@H]2C1 [CBK289539] | 111% |
| CC(C)c1ccc(N2C(=O)[C@@H]3C[C@@H](NC(=O)c4cccs4)CCN3C2=O)cc1 [CBK289541] | 93.1% |
| CC(C)c1ccc(N2C(=O)[C@@H]3C[C@@H](NC(=O)c4ccnc(Cl)c4)CCN3C2=O)cc1 [CBK289544] | 102% |
| CC(C)c1ccc(N2C(=O)[C@@H]3C[C@@H](NC(=O)c4cccn4C)CCN3C2=O)cc1 [CBK289547] | 92.3% |
| Cn1cccc1C(=O)N[C@H]1CCN2C(=O)N(c3ccc(OC(F)(F)F)cc3)C(=O)[C@@H]2C1 [CBK289548] | 94.7% |
| Cn1cccc1C(=O)N[C@H]1CCN2C(=O)N(c3cccc(F)c3)C(=O)[C@@H]2C1 [CBK289549] | 88.8% |
| O=C(N[C@H]1CCN2C(=O)N(c3cccc(C(F)(F)F)c3)C(=O)[C@@H]2C1)c1ccncc1 [CBK289552] | 98.7% |
| C=CCO[C@@H]1C[C@H]2C(=O)N3CC[C@H](NC(=O)[C@@H](O)c4ccccc4)C[C@H]3C(=O)N2C1 [CBK289556] | 89.6% |
| O=C(N[C@H]1CCN2C(=O)c3cc(-c4ccccc4F)ccc3NC(=O)[C@@H]2C1)c1cnccn1 [CBK289558] | 118% |
| O=C(N[C@H]1CCN2C(=O)c3cc(-c4cccs4)ccc3NC(=O)[C@@H]2C1)c1cnccn1 [CBK289559] | 106% |
| COCC(=O)N[C@H]1CCN2C(=O)c3cc(-c4ccc(F)cc4F)ccc3NC(=O)[C@@H]2C1 [CBK289561] | 78.6% |
| COc1ccc(C(=O)N[C@H]2CCN3C(=O)c4ccc(Cl)cc4NC(=O)[C@@H]3C2)cc1 [CBK289564] | 84.5% |
| CS(=O)(=O)N[C@H]1CCN2C(=O)c3cc(-c4ccc(Cl)cc4)ccc3NC(=O)[C@@H]2C1 [CBK289565] | 95.3% |
| Cc1cccc(-c2ccc3c(c2)C(=O)N2CC[C@H](NC(=O)NC(C)C)C[C@H]2C(=O)N3)c1C [CBK289567] | 97.9% |
| CC(C)NC(=O)C[C@@H]1c2nc(-c3ccccc3)sc2C[C@@H]2[C@](C)(CO)[C@H](O)CC[C@]21C [CBK289570] | 90.6% |
| Cc1nc2c(s1)C[C@@H]1[C@](C)(CO)[C@H](O)CC[C@@]1(C)[C@@H]2CC(=O)O [CBK289571] | 93.3% |
| COc1ccc(CNC(=O)C[C@@H]2[C@H](O)CCC3[C@]4(C)CO[C@@H](CN)O[C@@H]4CC[C@]32C)cc1 (stereo partly shown) [CBK289575] | 109% |
| COc1cccc(NC(=O)O[C@@H]2CC[C@]3(C)C(CC[C@H]4OC(=O)C[C@H]43)[C@]2(C)CO)c1 (stereo partly shown) [CBK289576] | 95.2% |
| COC(=O)[C@@H]1CN(C(=O)c2ccc(OC)cc2)CCN1C(C)=O [CBK289578] | 97.5% |
| O=C(O)CCCC(=O)N1CCN2C(=O)c3cc(Br)ccc3NC(=O)[C@@H]2C1 [CBK289581] | 100% |
| COCC(=O)N1CCN2C(=O)c3ccccc3NC(=O)[C@@H]2C1 [CBK289582] | 90.6% |
| COc1ccc(-c2ccc3c(c2)C(=O)N2CCN(C(=O)CC(C)(C)C)C[C@@H]2C(=O)N3)cc1 [CBK289584] | 94.6% |
